The NIST ThermoML archive (doi:10.1021/je3010062)

Conditions: 101.33 kPa, Liquid; for viscosity: Concentric cylinders viscometry; for mass density: Vibrating tube method; for electrical conductivity: syringe-type cell with a pair of platinum electrodes

CCCCCCC[N+](C)(C)CC.O=S(=O)([N-]S(=O)(=O)C(F)(F)F)C(F)(F)F
Conditions | electrical conductivity [S/m] | mass density [kg/m3] | viscosity [mPa·s]
273.15 K | 0.0157 | 1311.95 | 944.3
278.15 K | 0.023 | 1307.78 | 634.1
283.15 K | 0.0328 | 1303.56 | 437.8
288.15 K | 0.0454 | 1299.38 | 310.5
293.15 K | 0.0614 | 1295.2 | 225.7
298.15 K | 0.081 | 1291 | 167.7
303.15 K | 0.105 | 1286.82 | 127.6
313.15 K | 0.167 | 1278.51 | 77.77
323.15 K | 0.249 | 1270.28 | 50.63
333.15 K | 0.353 | 1262.09 | 34.68
343.15 K | 0.48 | 1253.97 | 24.84
353.15 K | 0.631 | 1245.9 | 18.49
363.15 K | – | 1237.87 | 14.18

CC[N+](C)(C)CCOCCOC.O=S(=O)([N-]S(=O)(=O)C(F)(F)F)C(F)(F)F
Conditions | electrical conductivity [S/m] | mass density [kg/m3] | viscosity [mPa·s]
273.15 K | 0.0681 | 1414.1 | 243.5
278.15 K | 0.0936 | 1409.65 | 173.6
283.15 K | 0.125 | 1404.97 | 127.5
288.15 K | 0.162 | 1400.31 | 96.35
293.15 K | 0.206 | 1395.68 | 74.27
298.15 K | 0.257 | 1391.07 | 58.57
303.15 K | 0.315 | 1386.49 | 47.19
313.15 K | 0.451 | 1377.4 | 32.03
323.15 K | 0.616 | 1368.39 | 22.89
333.15 K | 0.81 | 1359.45 | 17.02
343.15 K | 1.02 | 1350.57 | 13.14
353.15 K | 1.27 | 1341.75 | 10.39
363.15 K | – | 1332.98 | 8.433
